Data as given in patent US11820822B2, “Methods for sensitizing cancer cells to T cell-mediated killing by modulating molecular pathways” (DANA-FARBER CANCER INSTITUTE, INC., priority 2017, dated 2023).

How the values were obtained:
[1] = tested on: B16F10-Cas9 cells co-cultured with Pmel-1 T cells; assay: Genome-scale CRISPR-Cas9 screen, selection with Pmel-1 T cells; type: cell-based, mouse; conditions: Table 3; B16F10-Cas9 cells pre-treated with IFNγ, co-cultured with Pmel-1 T cells 1:1 for three days; negative = depleted, positive = enriched
[2] = tested on: B16F10-Cas9 cells pulsed with SIINFEKL peptide, co-cultured with OT-I T cells; assay: Genome-scale CRISPR-Cas9 screen, selection with OT-I T cells; type: cell-based, mouse; conditions: Table 3; B16F10-Cas9 cells pulsed with SIINFEKL, co-cultured with OT-I T cells 1:1 for one day; negative = depleted, positive = enriched

Sequence | Pmel+ (sgRNA Log(2) fold change, Pmel-1 selection versus control T cells) [1] | OT1 (sgRNA Log(2) fold change, OT-I selection versus control T cells) [2]
GGACGAGAGCAACATAAACA (chemistry not fully specified) | 2.15 | -0.03
GGATAGACGCCCAGCCACTG (chemistry not fully specified) | 9.31 | 3.32
GGATCCTGGCGATTCAACAT (chemistry not fully specified) | 0.74 | -3.11
GGCCCCGACTCAGACCCGCG (chemistry not fully specified) | 3.60 | 5.15
GGTATTCCCAGCATACGACA (chemistry not fully specified) | 5.25 | 3.32
GGTCATACTTAAAAGCACAA (chemistry not fully specified) | -0.81 | -2.07
GGTTCCTTGCGGGACTCCGT (chemistry not fully specified) | -2.53 | -3.31
GGTTCGCTTCTTCCAAACCA (chemistry not fully specified) | -2.08 | -2.41
GTAGACAACAACATTCGCAG (chemistry not fully specified) | 2.97 | 0.33
GTATAAGCCATTACGACGCA (chemistry not fully specified) | -1.52 | -2.81
GTCTCTAGCAAAGTCCACGC (chemistry not fully specified) | 3.25 | -0.40
GTCTTGTGCAAAAAGCCCGA (chemistry not fully specified) | -0.15 | -2.54
GTGAGCCTGAGGAACCTGCT (chemistry not fully specified) | 3.08 | 1.01
GTTTCTGGCATCCAAAGTAG (chemistry not fully specified) | 0.80 | -2.50
TAAAAGTCCCTCCCTCAAAG (chemistry not fully specified) | 0.00 | -2.56
TAAGCGTTGTTGACTACATG (chemistry not fully specified) | 0.00 | -3.02
TAATTGCTGAGAATGTACTC (chemistry not fully specified) | 0.00 | -2.54
TACTGATCATAAACGAACCA (chemistry not fully specified) | 0.25 | -3.34
TAGCCGACAGAGATGTACCG (chemistry not fully specified) | 3.52 | 0.05
TATACCAATACGCAAATACC (chemistry not fully specified) | 4.34 | 4.07
TATGGAGCGGTGTATGCCCG (chemistry not fully specified) | 1.27 | -3.33
TATGTGGAGCATAACCGGAG (chemistry not fully specified) | 3.80 | 2.95
TCACTGCGTACGCGTCACTG (chemistry not fully specified) | 0.81 | -3.44
TCAGCAACTGAGAACTCACT (chemistry not fully specified) | -2.37 | -1.37
TCAGGATGCTGTGATAAGCG (chemistry not fully specified) | 2.98 | -0.67
TCATAGCCAGAGCATACTCT (chemistry not fully specified) | -1.33 | -3.24

Sequence | Pmel+ (sgRNA Log(2) fold change, Pmel-1 selection versus control T cells) [1] | OT1 (sgRNA Log(2) fold change, OT-I selection versus control T cells) [2]
TCATCTTCGGAGGGCTCAAG (chemistry not fully specified) | 2.75 | 0.18
TCCCTTTGATGTGTTCCACG (chemistry not fully specified) | 4.23 | 3.40
TCCGAACCGAATCATCACTG (chemistry not fully specified) | 10.23 | 3.59
TCGGCTTCCCATTCTCCGGT (chemistry not fully specified) | 4.33 | 5.48
TCTGTTGAAAGAGCGCCAAA (chemistry not fully specified) | -3.36 | -0.71
TCTTAAAGCTACGGTGTAAG (chemistry not fully specified) | -0.87 | -2.41
TCTTCAGGAGAGAATACCAT (chemistry not fully specified) | 3.86 | 3.69
TCTTGAAAACTATAGTACTC (chemistry not fully specified) | -2.12 | -2.40
TGAAGCTAATGACCATGAGC (chemistry not fully specified) | -0.59 | -2.77
TGAATAAATCCATCAGACAG (chemistry not fully specified) | 9.92 | 2.46
TGAGTATACTTGAATTTGAG (chemistry not fully specified) | 3.55 | 5.51
TGATAATAGATAAACGACCA (chemistry not fully specified) | 0.05 | -3.36
TGATGAGCAGATTCTAACTT (chemistry not fully specified) | 5.03 | 3.81
TGATGCTGGCCTCTATACTG (chemistry not fully specified) | -1.90 | -3.28
TGCACAGCATACACTAGTGA (chemistry not fully specified) | -1.65 | -2.96
TGGAACCTCCTGATCCGCTG (chemistry not fully specified) | 0.12 | -4.60
TGGAATTATGGTCAAAGTAG (chemistry not fully specified) | 0.96 | -2.20
TGGACATGAGCCATATGTTG (chemistry not fully specified) | 3.35 | -0.14
TGGACCTCCGAAAAACATCT (chemistry not fully specified) | 5.37 | 3.78
TGGTCTAGTTACCATGCAAG (chemistry not fully specified) | -0.83 | -3.50
TGTAATGTAGGTCTCCCAGG (chemistry not fully specified) | -1.35 | -3.77
TGTGAATGCTATGACGAGCT (chemistry not fully specified) | 0.02 | -2.59
TGTGATGTTAGATAAACAGA (chemistry not fully specified) | 7.91 | 1.50
TGTTCTAGGAAACTACATGG (chemistry not fully specified) | 1.10 | -2.76
TGTTTGCAGTTAGCAAAACG (chemistry not fully specified) | 0.00 | -2.49
TTAATGACGAGCTCGTGGAG (chemistry not fully specified) | 8.60 | 2.25
